# pEC50: −log10 of the molar value. Values joined by “and” are separate entries in the source; they are usually repeats but may differ in a detail not shown here. Equal entries are not always repeated. “Also recorded” adds a separate entry of the source. Where two headings read alike, the source gives them in different places.
# How the values were obtained:
# [1] = rat, cited from earlier work
# [2] = test system: mice; details: mouse, in vivo
# [3] = target: T1, human CB2 receptor (Homo sapiens, UniProt P34972); test: Efficacy and potency at the human CB2 receptor expressed in CHO cells (cAMP, forskolin); format: cell-based
# T1 construct: expressed in transfected cells; host or cells: CHO cells
# T1 sequence (P34972 whole entry): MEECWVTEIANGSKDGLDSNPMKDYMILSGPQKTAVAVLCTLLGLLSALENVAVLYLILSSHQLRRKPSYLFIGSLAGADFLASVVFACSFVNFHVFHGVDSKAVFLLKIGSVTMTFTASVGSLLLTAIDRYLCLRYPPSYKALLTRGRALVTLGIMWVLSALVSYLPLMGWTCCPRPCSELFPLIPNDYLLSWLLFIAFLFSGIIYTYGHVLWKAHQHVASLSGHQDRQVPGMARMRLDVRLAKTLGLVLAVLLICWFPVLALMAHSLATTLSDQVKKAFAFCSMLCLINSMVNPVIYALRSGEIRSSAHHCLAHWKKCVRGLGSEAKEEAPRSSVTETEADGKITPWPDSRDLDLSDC
smiles,measurement,setting,value
C=C(C)[C@@H]1CCC(C)=C[C@H]1c1c(O)cc(CCCCC)cc1O [cannabidiol],brain-to-plasma ratio,[1]; Alozie et al 1980,2.61
CCCCCc1cc(O)c2c(c1)OC(C)(C)c1ccc(C)cc1-2 [cannabinol],brain-to-plasma ratio,[1]; Alozie et al 1980,0.88
"Cl.O=C(NCCO)[C@H]1CCCN(Cc2nc(-c3cn(CC4CCS(=O)(=O)CC4)c4c(Cl)cccc34)ns2)C1 [Compound 2, (S)-7-Chloro-3-[(5-{[3-N-(2-hydroxyethyl)carboxamido]piperidin-1-yl}methyl)([1,2,4]-thiadiazol-3-yl)]-1-(1,1-dioxo-hexahydrothiopyran-4-yl)methyl-1H-indole, hydrochloride salt]",combination versus opioid on its own (in words),[2],significantly different
same,time of maximum effect post-injection,[2]; iv,20 min
same,effect of co-administration on tail flick latency (in words),"[2]; iv, hydrochloride salt",increased tail flick latency in a dose-dependent manner; also recorded: dose-dependent potentiation
"CCOC(=O)c1c(C)cc2nc(COC(=O)NCCO)n(-c3ccccc3S(=O)(=O)NC)c(=O)c2c1C [Compound 1a, 2-(2-Hydroxy-ethylcarbamoyloxymethyl)-5,7-dimethyl-3-(2-methylsulfamoylphenyl)-4-oxo-3,4-dihydro-quinazoline-6-carboxylic acid ethyl ester]",pEC50,[3],8.46
same,Emax,"[3]; CHO, relative to maximal response (100%) obtained with CP 55940, human CB2",107%
same,effect on tail flick latency (in words),[2],had no effect on tail flick latency
same,effect on tail flick latency (in words),[2]; iv,had no effect on tail flick latency; also recorded: did not increase the tail flick latency
same,time of maximum effect post-injection,[2]; iv,40 min
"CN1CC[C@]23c4c5ccc(O)c4O[C@H]2[C@@H](O)C=C[C@H]3[C@H]1C5 [morphine, reference compound]",% of MPE,[2]; iv,47.7% and 42.9%
"COc1ccc2c3c1O[C@H]1[C@@H](O)C=C[C@H]4[C@@H](C2)N(C)CC[C@@]341 [Codeine, reference compound]",% of MPE,[2]; iv,44.2%
same,Tail flick latency (s) + s.e.m. at Tmax,[2]; iv,6.95 ± 0.84 s
"CCCCCc1cc(O)c2c(c1)OC(C)(C)[C@@H]1CCC(C)=C[C@@H]21 [Δ^9THC, Δ^9-tetrahydrocannabinol]",brain-to-plasma ratio,[1]; Alozie et al 1980,0.96
same,brain-to-plasma ratio,[1]; Dyson et al 2005,1.0
"Cc1c(C(=O)c2cccc3ccccc23)c2cccc3c2n1[C@H](CN1CCOCC1)CO3 [WIN55, 212-2]",brain-to-plasma ratio,[1]; Dyson et al 2005,1.3-1.9
